Patent US20120202690A1, “HERBICIDAL COMPOUNDS” (SYNGENTA LIMITED, priority 2009, published 2012)

Experiments:
Setaria faberi (SETFA) [1] = experiment: Pre-emergence biological efficacy, glasshouse, 1000 g/ha, evaluated after 13 days (100=total damage to plant; 0=no damage to plant); format: in vivo; settings: Setaria faberi, 312 h, read-out: Percentage damage caused to weed species, pre-emergence, SETFA; for pest or weed control at 1000 g/ha: rate 1,000 g/ha
Method in brief: (§1)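 Pot-sown in standard soil; glasshouse 24/16° C. (day/night), 14 h light, 65% humidity; watered twice daily.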

Solanum nigrum (SOLNI) [2] = experiment: as above; format: in vivo; settings: Solanum nigrum, 312 h, read-out: Percentage damage caused to weed species, pre-emergence, SOLNI; for pest or weed control at 1000 g/ha: rate 1,000 g/ha
Method in brief: as §1

[3] = test system: Ipomoea hederaceae (IPOHE); experiment: as above; format: in vivo; settings: Ipomoea, 312 h, read-out: Percentage damage caused to weed species, pre-emergence, IPOHE; for pest or weed control at 1000 g/ha: rate 1,000 g/ha
Method in brief: as §1

[4] = test system: Amaranthus retroflexus (AMARE); experiment: as above; format: in vivo; settings: Amaranthus retroflexus, 312 h, read-out: Percentage damage caused to weed species, pre-emergence, AMARE; for pest or weed control at 1000 g/ha: rate 1,000 g/ha
Method in brief: as §1

[5] = test system: Echinochloa crus-galli (ECHCG); experiment: as above; format: in vivo; settings: Echinochloa crus-galli, 312 h, read-out: Percentage damage caused to weed species, pre-emergence, ECHCG; for pest or weed control at 1000 g/ha: rate 1,000 g/ha
Method in brief: as §1

[6] = test system: Alopecurus myosuroides (ALOMY); experiment: as above; format: in vivo; settings: Alopecurus myosuroides, 312 h, read-out: Percentage damage caused to weed species, pre-emergence, ALOMY; for pest or weed control at 1000 g/ha: rate 1,000 g/ha
Method in brief: as §1

Setaria faberi (SETFA) [7] = experiment: Post-emergence biological efficacy, glasshouse, 500 or 1000 g/ha, evaluated after 13 days (100=total damage to plant; 0=no damage to plant); format: in vivo; settings: Setaria faberi, 312 h, read-out: Percentage damage caused to weed species, post-emergence, SETFA; for pest or weed control at 1000 g/ha: rate 1,000 g/ha
Method in brief: (§2)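 Plants raised from seed in pots of standard soil receive the spray after emergence. They then grow on under controlled glasshouse conditions (24/16° C. day/night, 14 hours light, 65% humidity) and are watered twice a day.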

Solanum nigrum (SOLNI) [8] = experiment: as above; format: in vivo; settings: Solanum nigrum, 312 h, read-out: Percentage damage caused to weed species, post-emergence, SOLNI; for pest or weed control at 1000 g/ha: rate 1,000 g/ha
Method in brief: as §2

[9] = test system: Ipomoea hederaceae (IPOHE); experiment: as above; format: in vivo; settings: Ipomoea, 312 h, read-out: Percentage damage caused to weed species, post-emergence, IPOHE; for pest or weed control at 1000 g/ha: rate 1,000 g/ha
Method in brief: as §2

[10] = test system: Amaranthus retroflexus (AMARE); experiment: as above; format: in vivo; settings: Amaranthus retroflexus, 312 h, read-out: Percentage damage caused to weed species, post-emergence, AMARE; for pest or weed control at 1000 g/ha: rate 1,000 g/ha
Method in brief: as §2

[11] = test system: Echinochloa crusgaffi (ECHCG); experiment: as above; format: in vivo; settings: Echinochloa, 312 h, read-out: Percentage damage caused to weed species, post-emergence, ECHCG; for pest or weed control at 1000 g/ha: rate 1,000 g/ha
Method in brief: as §2

[12] = test system: Alopecurus myosuroides (ALOMY); experiment: as above; format: in vivo; settings: Alopecurus myosuroides, 312 h, read-out: Percentage damage caused to weed species, post-emergence, ALOMY; for pest or weed control at 1000 g/ha: rate 1,000 g/ha
Method in brief: as §2

SMILES | pest or weed control at 1000 g/ha (Setaria faberi (SETFA) [1]) | pest or weed control at 1000 g/ha (Solanum nigrum (SOLNI) [2]) | pest or weed control at 1000 g/ha [3] | pest or weed control at 1000 g/ha [4] | pest or weed control at 1000 g/ha [5] | pest or weed control at 1000 g/ha [6] | pest or weed control at 1000 g/ha (Setaria faberi (SETFA) [7]) | pest or weed control at 1000 g/ha (Solanum nigrum (SOLNI) [8]) | pest or weed control at 1000 g/ha [9] | pest or weed control at 1000 g/ha [10] | pest or weed control at 1000 g/ha [11] | pest or weed control at 1000 g/ha [12] | melting point | other results
COC(=O)c1nc(C2CC2)nc2c1Nc1ccccc1N2 [Compound 119-28, 2-Cyclo-propyl-4-methoxy-carbonyl-5,10-dihydro-benzo[g] pteridine] | 0% | 0% | 0% | 0% | 0% | 0% | 0% | 20% | 10% | 20% | 0% | 0% | 217 to 219 °C | 
CCOCn1cc(C)c2c(C(=O)O)nc(-c3ccc(Cl)c(OC)c3F)nc21 [Compound 3-63, 4-carboxy-2-(4-chloro-2-fluoro-3-methoxyphenyl)-7-ethoxymethyl-5-methyl-7H-pyrrolo[2,3-d]pyrimidine] | 0% | 50% | 20% | 100% | 0% | 0% | 10% | 80% | 60% | 80% | 10% | 0% | 112 to 114 °C (dec.) | 
COC(=O)c1nc(-c2ccc(Cl)c(OC)c2F)nc2c1N(C)CCN2C [Compound 92-164, 2-(4-chloro-2-fluoro-3-methoxyphenyl)-5,8-dimethyl-4-methoxycarbonyl-5,6,7,8-tetrahydropteridine] | 0% | 0% | 0% | 0% | 0% | 0% | 0% | 10% | 0% | 0% | 0% | 0% | 97 °C | 
COC(=O)c1nc(-c2ccc(Cl)c(OC)c2F)nc2c1N(C(C)C)CCN2C(C)C [Compound 93-166, 2-(4-Chloro-2-fluoro-3-methoxyphenyl)-5,8-diisopropyl-4-methoxy-carbonyl-5,6,7,8-tetrahydropteridine] | 0% | 0% | 0% | 0% | 0% | 0% | 30% | 10% | 10% | 0% | 10% | 20% | 135 °C | 
COC(=O)c1nc(C2CC2)nc2[nH]ccc12 [Compound 1-2, 2-Cyclopropyl-4-methoxycarbonyl-7H-pyrrolo[2,3-d]pyrimidine] | 0% | 50% | 20% | 30% | 0% | 0% | 90% | 90% | 100% | 90% | 70% | 10% | 162 to 165 °C | 
CCOCn1cc(C)c2c(C(=O)OC)nc(-c3ccc(Cl)c(OC)c3F)nc21 [Compound 3-64, 2-(4-chloro-2-fluoro-3-methoxyphenyl)-7-ethoxymethyl-4-methoxycarbonyl-5-methyl-7H-pyrrolo[2,3-d]pyrimidine] | 0% | 0% | 0% | 0% | 0% | 0% | 0% | 40% | 70% | 10% | 0% | 0% | 107 to 108 °C | 
COC(=O)c1nc(-c2ccc(Cl)c(OC)c2F)nc2c1N(Cc1ccccc1)CCN2Cc1ccccc1 [Compound 95-168, 2-(4-Chloro-2-fluoro-3-methoxyphenyl)-5,8-dibenzyl-4-methoxy-carbonyl-5,6,7,8-tetrahydropteridine] | 0% | 0% | 0% | 0% | 0% | 0% | 0% | 10% | 10% | 0% | 0% | 0% | 146 °C | 
COC(=O)c1nc(-c2ccc(Cl)c(OC)c2F)nc2ncccc12 [Compound 123-50, 2-(4-chloro-2-fluoro-3-methoxyphenyl)-4-methoxycarbonyl-pyrido[2,3-d]pyrimidine] | 0% | 0% | 0% | 0% | 0% | 0% | 10% | 20% | 10% | 0% | 10% | 0% | 160 to 162 °C | 
COC(=O)c1nc(-c2ccc(Cl)c(F)c2)nc2c1n(Cc1ccccc1)c(=O)c(=O)n2Cc1ccccc1 [Compound 95-160, 2-(4-chloro-3-fluorophenyl)-5,8-dibenzyl-6,7-dioxo-4-methoxycarbonyl-5,6,7,8-tetrahydropteridine] |  |  |  |  |  |  |  |  |  |  |  |  | 211 °C | pest or weed control at 250 g/ha (Setaria faberi (SETFA) [1]; rate 250 g/ha): 0%; pest or weed control at 250 g/ha (Solanum nigrum (SOLNI) [2]; rate 250 g/ha): 0%; pest or weed control at 250 g/ha ([3]; rate 250 g/ha): 0%; pest or weed control at 250 g/ha ([4]; rate 250 g/ha): 0%; pest or weed control at 250 g/ha ([5]; rate 250 g/ha): 0%; pest or weed control at 250 g/ha ([6]; rate 250 g/ha): 0%; pest or weed control at 250 g/ha (Setaria faberi (SETFA) [7]; rate 250 g/ha): 40%; pest or weed control at 250 g/ha (Solanum nigrum (SOLNI) [8]; rate 250 g/ha): 30%; pest or weed control at 250 g/ha ([9]; rate 250 g/ha): 20%; pest or weed control at 250 g/ha ([10]; rate 250 g/ha): 20%; pest or weed control at 250 g/ha ([11]; rate 250 g/ha): 10%; pest or weed control at 250 g/ha ([12]; rate 250 g/ha): 10%
COc1c(Cl)ccc(-c2cc3[nH]cc(C)c3c(C(=O)OC(C)C)n2)c1F [Compound 22-78, 6-(4-Chloro-2-fluoro-3-methoxyphenyl)-4-isopropoxycarbonyl-3-methyl-1H-pyrrolo[3,2-c]pyridne] | 0% | 10% | 0% | 20% | 0% | 0% | 0% | 60% | 70% | 0% | 0% | 0% |  | 
